Molecules are shown by their SMILES.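 Exposure lasted 48 hours, with cells grown in 96-well plates and compounds tested at five concentrations. At the TGI there is no net growth.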

Among the data in PubChem BioAssay (NCI) are TGI values, retold here.

Test systems include HCT-15 colon; A549 NSCLC; OVCAR-5 ovarian; RPMI-8226 leukemia; OVCAR-8 ovarian; LOX IMVI melanoma; MALME-3M melanoma; SF-268 CNS; MOLT-4 leukemia; ACHN renal; HCC-2998 colon; MDA-MB-231 breast; DU-145 prostate; UACC-257 melanoma; TK-10 renal; U251 CNS; SK-MEL-28 melanoma; NCI/ADR-RES ovarian; MDA-N; SK-MEL-2 melanoma.
Assay in all cases: inhibition of tumour cell growth, NCI panel, 48 h

Consider `CNC(=O)N1CN(c2ccccc2)C2(CCN(Cc3ccccc3)CC2)C1=O`, for which the TGI is greater than 100 µM with HCT-15 colon; greater than 100 µM in the assay with A549 NSCLC; 64.1 µM in the assay with OVCAR-5 ovarian; greater than 100 µM in the assay with RPMI-8226 leukemia; greater than 100 µM with OVCAR-8 ovarian; greater than 100 µM in the assay on LOX IMVI melanoma. Besides, the TGI in the assay with MALME-3M melanoma was greater than 100 µM; with SF-268 CNS, greater than 100 µM; with MOLT-4 leukemia, 46.8 µM; in the assay with ACHN renal, greater than 100 µM; in the assay with HCC-2998 colon it was 39.8 µM; with MDA-MB-231 breast, greater than 100 µM. Further, the TGI is greater than 100 µM in the assay on DU-145 prostate; greater than 100 µM with UACC-257 melanoma; greater than 100 µM in the assay with TK-10 renal; greater than 100 µM in the assay with U251 CNS; greater than 100 µM in the assay with SK-MEL-28 melanoma; 51.3 µM in the assay with NCI/ADR-RES ovarian. For the same compound, the TGI in the assay with MDA-N is greater than 100 µM.
As to `Cc1c(C(=O)Nc2ccccc2)nnn1-c1ccnc2cc(C(F)(F)F)ccc12`, the TGI is greater than 100 µM with HCT-15 colon; greater than 100 µM in the assay on A549 NSCLC; greater than 100 µM in the assay on OVCAR-5 ovarian; greater than 100 µM in the assay on SK-MEL-2 melanoma; greater than 100 µM in the assay on OVCAR-8 ovarian; 78.1 µM in the assay on LOX IMVI melanoma. Also, the TGI in the assay on MALME-3M melanoma is greater than 100 µM; in the assay on SF-268 CNS it was greater than 100 µM; with MOLT-4 leukemia, 79.6 µM; in the assay on ACHN renal it was greater than 100 µM; with HCC-2998 colon, greater than 100 µM; in the assay on MDA-MB-231 breast it was greater than 100 µM. Besides, the TGI with DU-145 prostate, with UACC-257 melanoma, in the assay on TK-10 renal, in the assay on U251 CNS, in the assay on SK-MEL-28 melanoma and in the assay with NCI/ADR-RES ovarian was greater than 100 µM throughout. Further, in the assay with MDA-N, the TGI was greater than 100 µM.
Take `O=C(c1ccccc1)N(CCCCNC(=O)C(F)(F)F)CCCNC(=O)C(F)(F)F`: the TGI in the assay with HCT-15 colon, in the assay on A549 NSCLC, in the assay with OVCAR-5 ovarian, in the assay with RPMI-8226 leukemia, in the assay with OVCAR-8 ovarian and in the assay with LOX IMVI melanoma was greater than 100 µM throughout. In addition, the TGI in the assay on MALME-3M melanoma, in the assay with SF-268 CNS, in the assay with MOLT-4 leukemia, in the assay on ACHN renal, in the assay on HCC-2998 colon and in the assay on MDA-MB-231 breast was greater than 100 µM in each case. Besides, the TGI in the assay with DU-145 prostate, in the assay with UACC-257 melanoma, in the assay on TK-10 renal, with U251 CNS, in the assay on SK-MEL-28 melanoma and with NCI/ADR-RES ovarian was greater than 100 µM each time. The compound also yielded a TGI in the assay with MDA-N greater than 100 µM.
On to `CCCCc1nc(C)oc1C(C)C`, for which the TGI with HCT-15 colon, in the assay with A549 NSCLC, with OVCAR-5 ovarian, in the assay with OVCAR-8 ovarian, in the assay on LOX IMVI melanoma and with MALME-3M melanoma was greater than 100 µM each time. Also, the TGI in the assay with SF-268 CNS, with MOLT-4 leukemia, in the assay with ACHN renal, in the assay on HCC-2998 colon, with MDA-MB-231 breast and with DU-145 prostate was greater than 100 µM throughout. Further, the TGI in the assay with UACC-257 melanoma, with TK-10 renal, in the assay on U251 CNS, in the assay with SK-MEL-28 melanoma, in the assay on NCI/ADR-RES ovarian and with MDA-N was greater than 100 µM in each case.
For the compound `COc1ccc(N/N=C/C2=CC(C)(C)C(C#N)(C#N)C(O)=C2C#N)cc1`, the TGI with HCT-15 colon, in the assay on A549 NSCLC, with OVCAR-5 ovarian, in the assay on SK-MEL-2 melanoma, with RPMI-8226 leukemia and with OVCAR-8 ovarian was greater than 100 µM throughout. Moreover, the TGI in the assay with LOX IMVI melanoma, in the assay with MALME-3M melanoma, in the assay with SF-268 CNS, with MOLT-4 leukemia, with ACHN renal and in the assay with MDA-MB-231 breast was greater than 100 µM throughout. Further, the TGI with DU-145 prostate, with UACC-257 melanoma, in the assay with TK-10 renal, with U251 CNS, with SK-MEL-28 melanoma and with NCI/ADR-RES ovarian was greater than 100 µM each time. Further, the TGI in the assay on MDA-N was greater than 100 µM.
As to `O=C1NC(=NCc2ccc(F)cc2)N/C1=C\c1ccccc1Cl`, the TGI amounted to 71.2 µM with HCT-15 colon; 41.8 µM in the assay with A549 NSCLC; 41 µM in the assay with OVCAR-5 ovarian; 33.3 µM in the assay with SK-MEL-2 melanoma; 29.3 µM with OVCAR-8 ovarian; 28.6 µM in the assay with LOX IMVI melanoma. Moreover, the TGI was 41.8 µM in the assay with MALME-3M melanoma; 59.9 µM in the assay with SF-268 CNS; greater than 100 µM with MOLT-4 leukemia; 49.1 µM in the assay on ACHN renal; greater than 100 µM in the assay on HCC-2998 colon; 41.8 µM in the assay on MDA-MB-231 breast. The TGI in the assay on DU-145 prostate is 46.8 µM; with UACC-257 melanoma, greater than 100 µM; with TK-10 renal, 67.4 µM; in the assay with U251 CNS it was 30.4 µM; with SK-MEL-28 melanoma, 67.3 µM; in the assay with NCI/ADR-RES ovarian it was 86.1 µM. In the assay with MDA-N, the TGI stood at 40.3 µM.
In the case of `O=C(Nc1ccccc1)c1cc(S(=O)(=O)N2CCNC2=O)c(S)cc1Cl`, the TGI with HCT-15 colon, in the assay on A549 NSCLC, in the assay on OVCAR-5 ovarian, in the assay with SK-MEL-2 melanoma, in the assay with RPMI-8226 leukemia and in the assay with OVCAR-8 ovarian was greater than 100 µM in each case. Moreover, the TGI in the assay on LOX IMVI melanoma, in the assay with SF-268 CNS, with MOLT-4 leukemia, in the assay on ACHN renal, with HCC-2998 colon and in the assay with MDA-MB-231 breast was greater than 100 µM in each case. The TGI with DU-145 prostate, in the assay with UACC-257 melanoma, in the assay on TK-10 renal, in the assay with U251 CNS, in the assay with SK-MEL-28 melanoma and in the assay with NCI/ADR-RES ovarian was greater than 100 µM in each case. In the assay on MDA-N, the TGI was greater than 100 µM.
